The subject of this test is CD2F1 mice, L1210 leukemia ip, survival T/C. Briefly: NCI In Vivo Anticancer Drug Screen. Data for tumor model L1210 Leukemia (intraperitoneal) in CD2F1 (CDF1) mice. The note with it: higher = longer survival. An outline of the steps:
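Antitumor effect is scored in animals hosting a serially transplanted tumor. Values compare compound-dosed animals against vehicle-only controls as a simple quotient.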

Where [1] appears, read: endpoint: mean survival time, dose: 100.0 mg/kg/injection, schedule: Q01DX009 (ip), vehicle: saline with Tween-80.
Setting [2] is: endpoint: mean survival time, dose: 100.0 mg/kg/injection, schedule: Q04DX003 (ip), vehicle: saline with Tween-80.
[3] abbreviates: endpoint: mean survival time, dose: 200.0 mg/kg/injection, schedule: Q01DX009 (ip), vehicle: saline with Tween-80.
Where [4] appears, read: endpoint: mean survival time, dose: 200.0 mg/kg/injection, schedule: Q04DX003 (ip), vehicle: saline with Tween-80.
[5] abbreviates: endpoint: mean survival time, dose: 400.0 mg/kg/injection, schedule: Q01DX009 (ip), vehicle: saline with Tween-80.
Setting [6] is: endpoint: mean survival time, dose: 400.0 mg/kg/injection, schedule: Q04DX003 (ip), vehicle: saline with Tween-80.
Setting [7] is: endpoint: mean survival time, dose: 50.0 mg/kg/injection, schedule: Q04DX003 (ip), vehicle: saline with Tween-80.

Where “and” joins values, the source holds several entries; their conditions need not be identical. Equal values may be shown once. Toxic doses and inconclusive results are not listed.

Take `CC(C)(C)NC(=O)CCC(CC(=O)NC(C)(C)C)OCc1ccccc1` (centres undefined): the T/C reads like this: (endpoint: mean survival time, dose: 50.0 mg/kg/injection, schedule: Q01DX009 (ip), vehicle: saline with Tween-80) 100 % of control; under setting [1], 104 % of control; under setting [2], 101 % of control; under setting [3], 102 % of control; under setting [4], 106 % of control; under setting [5], 93 % of control. Besides, the T/C under setting [6] is 93 % of control.

Regarding `C[n+]1ccccc1/C=N/O`, the T/C is, setting by setting: (endpoint: mean survival time, dose: 25.0 mg/kg/injection, schedule: Q04DX003 (ip), vehicle: saline) 96 % of control; (endpoint: mean survival time, dose: 50.0 mg/kg/injection, schedule: Q04DX003 (ip), vehicle: saline) 94 % of control; (endpoint: mean survival time, dose: 100.0 mg/kg/injection, schedule: Q04DX003 (ip), vehicle: saline) 93 % of control and 97 % of control.

Take `O.[Cl][Pt].[S-]CCN1CCCCC1`: the T/C was 96 % of control (endpoint: mean survival time, dose: 12.5 mg/kg/injection, schedule: Q04DX003 (ip), vehicle: distilled water + Tween-80); 100 % of control (endpoint: mean survival time, dose: 25.0 mg/kg/injection, schedule: Q04DX003 (ip), vehicle: distilled water + Tween-80); 98 % of control (endpoint: mean survival time, dose: 50.0 mg/kg/injection, schedule: Q04DX003 (ip), vehicle: distilled water + Tween-80); 90 % of control (endpoint: mean survival time, dose: 100.0 mg/kg/injection, schedule: Q04DX003 (ip), vehicle: distilled water + Tween-80); 93 % of control (endpoint: mean survival time, dose: 200.0 mg/kg/injection, schedule: Q04DX003 (ip), vehicle: distilled water + Tween-80).

For `CC(=O)Nc1c([N+](=O)[O-])cc2c3c(cccc13)CC2`, the T/C runs as follows: under setting [1], 102 % of control; under setting [2], 100 % of control; under setting [3], 97 % of control; under setting [4], 102 % of control; under setting [5], 97 % of control; under setting [6], 100 % of control.

Regarding `O=C(Nc1cc([N+](=O)[O-])ccc1O)C(O)c1ccccc1` (centres undefined), the T/C is 95 % of control (endpoint: mean survival time, dose: 12.5 mg/kg/injection, schedule: Q01DX009 (ip), vehicle: other); 89 % of control (endpoint: mean survival time, dose: 25.0 mg/kg/injection, schedule: Q01DX009 (ip), vehicle: other); 86 % of control (endpoint: mean survival time, dose: 50.0 mg/kg/injection, schedule: Q01DX009 (ip), vehicle: other); 91 % of control (endpoint: mean survival time, dose: 100.0 mg/kg/injection, schedule: Q01DX009 (ip), vehicle: other); 91 % of control (endpoint: mean survival time, dose: 200.0 mg/kg/injection, schedule: Q01DX009 (ip), vehicle: other).

As to `Cn1c(CC(O)(C(F)(F)Cl)C(F)(F)Cl)cc(=O)n1-c1ccccc1`, the T/C was 101 % of control under setting [7]; 97 % of control under setting [1]; 97 % of control under setting [2]; 97 % of control under setting [3]; 97 % of control under setting [4]; 92 % of control under setting [6].

For `CCOC(=O)C1=C(C#N)C2(CCC(OCc3ccccc3)CC2)C(=O)O1` (centres undefined), the T/C (endpoint: mean survival time, dose: 12.5 mg/kg/injection, schedule: Q01DX009 (ip), vehicle: saline) was 95 % of control; the T/C (endpoint: mean survival time, dose: 12.5 mg/kg/injection, schedule: Q01DX009 (ip), vehicle: suspension in saline) is 106 % of control; the T/C (endpoint: mean survival time, dose: 25.0 mg/kg/injection, schedule: Q01DX009 (ip), vehicle: saline) was 100 % of control; the T/C (endpoint: mean survival time, dose: 25.0 mg/kg/injection, schedule: Q01DX009 (ip), vehicle: suspension in saline) was 106 % of control; the T/C (endpoint: mean survival time, dose: 50.0 mg/kg/injection, schedule: Q01DX009 (ip), vehicle: saline) was 107 % of control; the T/C (endpoint: mean survival time, dose: 50.0 mg/kg/injection, schedule: Q01DX009 (ip), vehicle: suspension in saline) is 108 % of control. In addition, the T/C (endpoint: mean survival time, dose: 100.0 mg/kg/injection, schedule: Q01DX009 (ip), vehicle: saline) is 106 % of control; the T/C (endpoint: mean survival time, dose: 100.0 mg/kg/injection, schedule: Q01DX009 (ip), vehicle: suspension in saline) is 106 % of control; the T/C (endpoint: mean survival time, dose: 200.0 mg/kg/injection, schedule: Q01DX009 (ip), vehicle: saline) is 106 % of control; the T/C (endpoint: mean survival time, dose: 200.0 mg/kg/injection, schedule: Q01DX009 (ip), vehicle: suspension in saline) was 100 % of control; the T/C (endpoint: mean survival time, dose: 400.0 mg/kg/injection, schedule: Q01DX009 (ip), vehicle: suspension in saline) is 108 % of control.

Consider `COc1cccc2c1C(=O)c1c(O)c3c(c(O)c1C2=O)C[C@](O)(C(=O)CO)CC3OC1CC(N)C(OC2CCCCO2)C(C)O1` (some centres undefined), for which the T/C is, setting by setting: (endpoint: median survival time, dose: 3.0 mg/kg/injection, schedule: Q01DX009 (ip), vehicle: water) 123 % of control and 227 % of control; (endpoint: median survival time, dose: 6.0 mg/kg/injection, schedule: Q01DX009 (ip), vehicle: water) 91 % of control.

For `CCN(CC)C(=O)CS(=O)(=O)c1ccc(C)cc1`, the T/C by setting is: under setting [1], 100 % of control; under setting [3], 100 % of control; under setting [5], 101 % of control.

With `COC(=O)c1ccccc1-c1ccccc1C(=O)O`, the T/C by setting is: (endpoint: mean survival time, dose: 44.0 mg/kg/injection, schedule: Q01DX001 (ip), vehicle: other) 97 % of control; (endpoint: mean survival time, dose: 66.0 mg/kg/injection, schedule: Q01DX001 (ip), vehicle: other) 97 % of control; (endpoint: mean survival time, dose: 100.0 mg/kg/injection, schedule: Q01DX001 (ip), vehicle: other) 103 % of control; (endpoint: mean survival time, dose: 150.0 mg/kg/injection, schedule: Q01DX001 (ip), vehicle: other) 100 % of control.

For `C[n+]1cccc(C=O)c1`, the T/C was 103 % of control (endpoint: mean survival time, dose: 100.0 mg/kg/injection, schedule: Q01DX001 (ip), vehicle: saline); 105 % of control (endpoint: mean survival time, dose: 200.0 mg/kg/injection, schedule: Q01DX001 (ip), vehicle: saline); 108 % of control (endpoint: mean survival time, dose: 400.0 mg/kg/injection, schedule: Q01DX001 (ip), vehicle: saline).

For the compound `O=C(CCCN1CCC(C(O)c2ccc(F)cc2)CC1)c1ccc(F)cc1` (centres undefined), the T/C reads like this: (endpoint: median survival time, dose: 6.25 mg/kg/injection, schedule: Q01DX009 (ip), vehicle: saline with Tween-80) 103 % of control and 109 % of control and 112 % of control; (endpoint: median survival time, dose: 6.25 mg/kg/injection, schedule: Q06HX014 (oral), vehicle: saline with Tween-80) 104 % of control; (endpoint: median survival time, dose: 12.5 mg/kg/injection, schedule: Q01DX009 (ip), vehicle: saline with Tween-80) 120 % of control and 108 % of control; (endpoint: median survival time, dose: 12.5 mg/kg/injection, schedule: Q01DX009 (oral), vehicle: saline with Tween-80) 111 % of control; (endpoint: median survival time, dose: 12.5 mg/kg/injection, schedule: Q06HX014 (oral), vehicle: saline with Tween-80) 105 % of control; (endpoint: median survival time, dose: 25.0 mg/kg/injection, schedule: Q01DX009 (ip), vehicle: saline with Tween-80) 121 % of control. Besides, the T/C was 105 % of control (endpoint: median survival time, dose: 25.0 mg/kg/injection, schedule: Q01DX009 (oral), vehicle: saline with Tween-80); 102 % of control (endpoint: median survival time, dose: 25.0 mg/kg/injection, schedule: Q04DX003 (oral), vehicle: saline with Tween-80); 105 % of control (endpoint: median survival time, dose: 25.0 mg/kg/injection, schedule: Q06HX014 (oral), vehicle: saline with Tween-80); 109 % of control (endpoint: median survival time, dose: 29.7 mg/kg/injection, schedule: Q01DX009 (oral), vehicle: saline with Tween-80); 111 % of control (endpoint: median survival time, dose: 44.5 mg/kg/injection, schedule: Q01DX009 (oral), vehicle: saline with Tween-80); 123 % of control and 124 % of control (endpoint: median survival time, dose: 50.0 mg/kg/injection, schedule: Q01DX009 (ip), vehicle: saline with Tween-80). The T/C was 115 % of control (endpoint: median survival time, dose: 50.0 mg/kg/injection, schedule: Q01DX009 (oral), vehicle: saline with Tween-80); 112 % of control (endpoint: median survival time, dose: 50.0 mg/kg/injection, schedule: Q04DX003 (oral), vehicle: saline with Tween-80); 113 % of control (endpoint: median survival time, dose: 50.0 mg/kg/injection, schedule: Q06HX014 (oral), vehicle: saline with Tween-80); 118 % of control (endpoint: median survival time, dose: 66.7 mg/kg/injection, schedule: Q01DX009 (oral), vehicle: saline with Tween-80); 118 % of control (endpoint: median survival time, dose: 100.0 mg/kg/injection, schedule: Q01DX009 (ip), vehicle: saline with Tween-80); 118 % of control (endpoint: median survival time, dose: 100.0 mg/kg/injection, schedule: Q01DX009 (oral), vehicle: saline with Tween-80). The T/C (endpoint: median survival time, dose: 100.0 mg/kg/injection, schedule: Q04DX003 (oral), vehicle: saline with Tween-80) was 111 % of control and the T/C (endpoint: median survival time, dose: 200.0 mg/kg/injection, schedule: Q04DX003 (oral), vehicle: saline with Tween-80) was 115 % of control.

Consider `O=C(O)c1ccc(Cl)cc1Nc1ccc(Cl)cc1`, for which the T/C is 97 % of control (endpoint: mean survival time, dose: 12.5 mg/kg/injection, schedule: Q04DX003 (ip), vehicle: saline with Tween-80); 100 % of control (endpoint: mean survival time, dose: 25.0 mg/kg/injection, schedule: Q04DX003 (ip), vehicle: saline with Tween-80); 107 % of control under setting [7]; 98 % of control under setting [2].

Values taken from PubChem BioAssay AID256 (DTP/NCI, 2004).
